Test results published in article PMC4508061, “Selectivity Profiling and Biological Activity of Novel β-Carbolines as Potent and Selective DYRK1 Kinase Inhibitors” (PLoS ONE, 2015).

How the values were obtained:
HIPK2 [1] = molecular target: T1, HIPK2 (Homo sapiens, UniProt Q9H2X6); test: Kinase-GLO luminescent kinase assay; format: biochemical; set-up: made in house; host or cells: E. coli; conditions: 10 μM compound; means of at least 3 measurements
How it was run: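 E. coli-expressed GST fusions (DYRK1A-ΔC, DYRK1B and HIPK2 catalytic domains, DYRK2) assayed in 25 mM Hepes pH 7.4, 5 mM MgCl2, 5 μM ATP with DYRKtide (20 μM for DYRKs, 100 μM for HIPK2). Kinase dosed to consume ~90% ATP; 30 min at room temperature, remaining ATP read by Kinase-GLO luminescence.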

ACK1 = ACK1 (Homo sapiens, UniProt Q07912); test: ProQinase radiometric kinase panel; conditions: mean of 2 exp.
AKT3 = AKT3 (Homo sapiens, UniProt Q9Y243); test: ProQinase radiometric kinase panel; conditions: mean of 2 exp.
CDK1/CycA2 = CDK1/CycA2 (Homo sapiens, UniProt P06493); test: ProQinase radiometric kinase panel; conditions: mean of 2 exp.
CDK8/CycC = CDK8/CycC (Homo sapiens, UniProt P49336); test: ProQinase radiometric kinase panel; conditions: mean of 2 exp.
CK1-gamma2 = CK1-gamma2 (Homo sapiens, UniProt P78368); test: ProQinase radiometric kinase panel; conditions: mean of 2 exp.
DCAMKL2 = DCAMKL2 (Homo sapiens, UniProt Q8N568); test: ProQinase radiometric kinase panel; conditions: mean of 2 exp.
EPHA7 = EPHA7 (Homo sapiens, UniProt Q15375); test: ProQinase radiometric kinase panel; conditions: mean of 2 exp.
ERBB4 = ERBB4 (Homo sapiens, UniProt Q15303); test: ProQinase radiometric kinase panel; conditions: mean of 2 exp.
Chain of ERBB4 (Q15303 26-1308): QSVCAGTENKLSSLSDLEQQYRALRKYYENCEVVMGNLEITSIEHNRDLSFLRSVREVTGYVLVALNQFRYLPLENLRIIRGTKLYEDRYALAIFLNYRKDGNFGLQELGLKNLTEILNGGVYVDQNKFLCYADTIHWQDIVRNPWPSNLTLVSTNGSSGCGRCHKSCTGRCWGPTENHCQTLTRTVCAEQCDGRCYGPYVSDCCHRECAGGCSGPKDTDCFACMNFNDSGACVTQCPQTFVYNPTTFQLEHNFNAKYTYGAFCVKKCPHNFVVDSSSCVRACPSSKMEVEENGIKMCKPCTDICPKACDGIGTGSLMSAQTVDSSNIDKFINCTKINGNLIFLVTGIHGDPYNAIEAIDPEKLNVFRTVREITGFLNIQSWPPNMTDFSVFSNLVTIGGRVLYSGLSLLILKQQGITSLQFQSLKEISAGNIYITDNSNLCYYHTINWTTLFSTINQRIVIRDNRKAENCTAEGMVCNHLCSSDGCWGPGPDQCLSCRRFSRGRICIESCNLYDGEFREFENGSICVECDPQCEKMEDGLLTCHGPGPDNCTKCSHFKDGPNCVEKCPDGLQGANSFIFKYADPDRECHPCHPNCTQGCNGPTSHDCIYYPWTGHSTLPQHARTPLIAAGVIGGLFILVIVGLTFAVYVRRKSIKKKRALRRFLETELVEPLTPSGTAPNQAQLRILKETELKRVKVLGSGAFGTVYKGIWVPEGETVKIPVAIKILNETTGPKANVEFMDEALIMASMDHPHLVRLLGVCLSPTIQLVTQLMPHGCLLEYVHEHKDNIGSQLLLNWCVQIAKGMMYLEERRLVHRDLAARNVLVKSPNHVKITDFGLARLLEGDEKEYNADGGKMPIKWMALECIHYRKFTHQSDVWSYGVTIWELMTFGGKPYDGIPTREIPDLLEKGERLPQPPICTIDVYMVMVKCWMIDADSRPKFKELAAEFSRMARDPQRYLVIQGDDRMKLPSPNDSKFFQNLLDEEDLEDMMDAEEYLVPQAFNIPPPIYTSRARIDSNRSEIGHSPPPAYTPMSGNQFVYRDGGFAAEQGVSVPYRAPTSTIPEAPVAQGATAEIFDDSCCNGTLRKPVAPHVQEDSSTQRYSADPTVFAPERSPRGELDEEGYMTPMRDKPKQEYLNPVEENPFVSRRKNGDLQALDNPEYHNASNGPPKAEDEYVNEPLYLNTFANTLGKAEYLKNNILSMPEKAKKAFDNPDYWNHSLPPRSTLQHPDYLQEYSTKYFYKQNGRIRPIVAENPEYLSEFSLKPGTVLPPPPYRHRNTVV

ERK7 = ERK7 (Homo sapiens, UniProt Q8TD08); test: ProQinase radiometric kinase panel; conditions: mean of 2 exp.
Chain of ERK7 (Q8TD08 whole entry): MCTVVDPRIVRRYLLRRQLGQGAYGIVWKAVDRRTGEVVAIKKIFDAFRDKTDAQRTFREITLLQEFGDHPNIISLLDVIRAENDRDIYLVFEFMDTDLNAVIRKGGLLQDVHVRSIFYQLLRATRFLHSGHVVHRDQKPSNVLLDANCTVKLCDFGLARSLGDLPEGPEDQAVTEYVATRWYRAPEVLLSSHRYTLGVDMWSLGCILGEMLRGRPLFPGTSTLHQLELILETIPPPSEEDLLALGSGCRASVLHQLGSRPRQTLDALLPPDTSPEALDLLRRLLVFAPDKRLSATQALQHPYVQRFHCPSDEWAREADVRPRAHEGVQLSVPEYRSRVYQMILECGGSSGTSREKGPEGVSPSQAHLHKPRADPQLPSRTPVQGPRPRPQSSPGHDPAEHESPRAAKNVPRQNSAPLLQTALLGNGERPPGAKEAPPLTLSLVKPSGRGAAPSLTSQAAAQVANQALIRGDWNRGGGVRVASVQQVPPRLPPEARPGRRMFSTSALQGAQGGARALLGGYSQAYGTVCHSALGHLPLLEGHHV

FGR = FGR (Homo sapiens, UniProt P09769); test: ProQinase radiometric kinase panel; conditions: mean of 2 exp.
GRK3 = GRK3 (Homo sapiens, UniProt P35626); test: ProQinase radiometric kinase panel; conditions: mean of 2 exp.
Chain of GRK3 (P35626 whole entry): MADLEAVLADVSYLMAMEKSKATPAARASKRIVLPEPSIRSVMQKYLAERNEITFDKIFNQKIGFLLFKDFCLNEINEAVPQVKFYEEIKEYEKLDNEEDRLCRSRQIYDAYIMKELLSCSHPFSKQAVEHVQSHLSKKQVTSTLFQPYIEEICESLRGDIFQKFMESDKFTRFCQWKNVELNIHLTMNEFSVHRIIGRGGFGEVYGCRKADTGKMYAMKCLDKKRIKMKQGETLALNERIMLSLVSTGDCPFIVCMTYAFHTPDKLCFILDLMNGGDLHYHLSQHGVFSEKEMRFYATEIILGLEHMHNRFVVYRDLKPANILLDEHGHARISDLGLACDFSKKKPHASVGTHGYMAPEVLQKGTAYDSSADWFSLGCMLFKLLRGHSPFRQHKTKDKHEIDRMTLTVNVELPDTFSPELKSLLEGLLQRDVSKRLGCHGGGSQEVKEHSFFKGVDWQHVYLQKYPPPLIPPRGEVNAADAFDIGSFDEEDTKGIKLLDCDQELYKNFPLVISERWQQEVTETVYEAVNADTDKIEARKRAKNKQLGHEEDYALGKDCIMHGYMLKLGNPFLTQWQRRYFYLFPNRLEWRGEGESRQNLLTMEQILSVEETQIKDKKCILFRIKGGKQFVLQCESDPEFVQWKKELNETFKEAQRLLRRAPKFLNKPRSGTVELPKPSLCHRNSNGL

GRK5 = GRK5 (Homo sapiens, UniProt P34947); test: ProQinase radiometric kinase panel; conditions: mean of 2 exp.
GRK6 = GRK6 (Homo sapiens, UniProt P43250); test: ProQinase radiometric kinase panel; conditions: mean of 2 exp.
HCK = HCK (Homo sapiens, UniProt P08631); test: ProQinase radiometric kinase panel; conditions: mean of 2 exp.
HIPK2 [2] = molecular target: T1, HIPK2; test: ProQinase radiometric kinase panel; conditions: mean of 2 exp.
Target sequence in this assay (Q9H2X6 whole entry, the tested form may be a part): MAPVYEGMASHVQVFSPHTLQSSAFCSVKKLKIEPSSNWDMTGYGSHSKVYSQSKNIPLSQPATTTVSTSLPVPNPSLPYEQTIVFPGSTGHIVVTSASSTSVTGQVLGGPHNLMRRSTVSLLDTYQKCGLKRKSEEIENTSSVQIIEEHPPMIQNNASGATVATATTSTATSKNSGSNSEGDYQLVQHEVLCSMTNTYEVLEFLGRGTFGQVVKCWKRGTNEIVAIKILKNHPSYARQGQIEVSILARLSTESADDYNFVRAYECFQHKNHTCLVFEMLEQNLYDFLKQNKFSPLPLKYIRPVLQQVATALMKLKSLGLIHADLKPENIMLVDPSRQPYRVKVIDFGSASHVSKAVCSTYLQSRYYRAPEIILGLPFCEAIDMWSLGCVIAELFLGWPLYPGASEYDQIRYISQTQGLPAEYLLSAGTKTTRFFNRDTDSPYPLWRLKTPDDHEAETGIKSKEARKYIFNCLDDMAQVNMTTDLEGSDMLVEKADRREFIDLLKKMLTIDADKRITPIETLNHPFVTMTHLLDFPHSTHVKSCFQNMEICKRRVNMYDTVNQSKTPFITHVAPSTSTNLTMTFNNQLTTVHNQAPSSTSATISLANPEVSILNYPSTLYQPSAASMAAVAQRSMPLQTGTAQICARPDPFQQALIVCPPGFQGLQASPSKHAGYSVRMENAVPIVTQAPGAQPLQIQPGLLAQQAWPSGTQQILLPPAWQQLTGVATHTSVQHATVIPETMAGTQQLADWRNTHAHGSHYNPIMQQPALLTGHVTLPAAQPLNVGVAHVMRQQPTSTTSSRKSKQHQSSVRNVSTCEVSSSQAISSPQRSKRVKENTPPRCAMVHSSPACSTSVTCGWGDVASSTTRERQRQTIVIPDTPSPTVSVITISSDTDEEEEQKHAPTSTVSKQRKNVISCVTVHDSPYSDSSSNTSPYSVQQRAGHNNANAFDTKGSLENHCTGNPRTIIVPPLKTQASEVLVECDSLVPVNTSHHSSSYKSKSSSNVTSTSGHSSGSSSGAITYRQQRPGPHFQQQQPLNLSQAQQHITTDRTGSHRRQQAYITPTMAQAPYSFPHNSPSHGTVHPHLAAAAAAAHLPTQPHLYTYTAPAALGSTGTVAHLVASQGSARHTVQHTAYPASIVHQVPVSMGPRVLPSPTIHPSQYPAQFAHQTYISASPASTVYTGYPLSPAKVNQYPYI

INSR-R = INSR-R (Homo sapiens, UniProt P14616); test: ProQinase radiometric kinase panel; conditions: mean of 2 exp.
JNK3 = JNK3 (Homo sapiens, UniProt P53779); test: ProQinase radiometric kinase panel; conditions: mean of 2 exp.
Experimental: Gini coefficients were calculated and the Lorenz curve (Fig 3B) was plotted by applying the Microsoft Excel spreadsheet provided by Graczyk [44].
radiometric protein kinase assays.

MST3 = MST3 (Homo sapiens, UniProt Q9Y6E0); test: ProQinase radiometric kinase panel; conditions: mean of 2 exp.
MST4 = MST4 (Homo sapiens, UniProt Q9P289); test: ProQinase radiometric kinase panel; conditions: mean of 2 exp.
NIK = NIK (Homo sapiens, UniProt Q99558); test: ProQinase radiometric kinase panel; conditions: mean of 2 exp.
Chain of NIK (Q99558 whole entry): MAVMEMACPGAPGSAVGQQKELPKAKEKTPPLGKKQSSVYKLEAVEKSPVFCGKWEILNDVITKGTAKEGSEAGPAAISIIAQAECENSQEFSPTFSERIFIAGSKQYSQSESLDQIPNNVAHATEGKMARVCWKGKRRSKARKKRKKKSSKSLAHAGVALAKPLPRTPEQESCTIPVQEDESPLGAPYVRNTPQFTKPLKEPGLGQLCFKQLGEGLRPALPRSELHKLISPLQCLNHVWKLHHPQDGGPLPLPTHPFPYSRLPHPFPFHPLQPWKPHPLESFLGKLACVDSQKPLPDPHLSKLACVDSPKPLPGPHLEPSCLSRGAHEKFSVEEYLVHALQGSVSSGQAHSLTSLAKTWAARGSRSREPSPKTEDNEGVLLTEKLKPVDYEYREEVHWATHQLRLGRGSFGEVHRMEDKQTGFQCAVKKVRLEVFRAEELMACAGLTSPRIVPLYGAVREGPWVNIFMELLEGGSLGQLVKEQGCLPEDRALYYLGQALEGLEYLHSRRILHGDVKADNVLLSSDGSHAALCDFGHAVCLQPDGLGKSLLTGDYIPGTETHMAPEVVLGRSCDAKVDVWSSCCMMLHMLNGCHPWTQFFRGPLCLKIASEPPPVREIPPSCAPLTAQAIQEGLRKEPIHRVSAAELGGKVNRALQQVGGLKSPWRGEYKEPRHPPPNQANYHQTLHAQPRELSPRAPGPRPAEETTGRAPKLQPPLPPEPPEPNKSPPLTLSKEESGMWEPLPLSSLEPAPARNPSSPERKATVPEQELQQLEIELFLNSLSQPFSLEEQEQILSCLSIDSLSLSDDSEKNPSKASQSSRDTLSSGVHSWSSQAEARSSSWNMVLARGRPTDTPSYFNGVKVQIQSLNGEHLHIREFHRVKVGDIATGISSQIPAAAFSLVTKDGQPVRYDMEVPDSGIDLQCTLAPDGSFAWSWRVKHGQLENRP

p38-gamma = p38-gamma (Homo sapiens, UniProt P53778); test: ProQinase radiometric kinase panel; conditions: mean of 2 exp.
Chain of p38-gamma (P53778 whole entry): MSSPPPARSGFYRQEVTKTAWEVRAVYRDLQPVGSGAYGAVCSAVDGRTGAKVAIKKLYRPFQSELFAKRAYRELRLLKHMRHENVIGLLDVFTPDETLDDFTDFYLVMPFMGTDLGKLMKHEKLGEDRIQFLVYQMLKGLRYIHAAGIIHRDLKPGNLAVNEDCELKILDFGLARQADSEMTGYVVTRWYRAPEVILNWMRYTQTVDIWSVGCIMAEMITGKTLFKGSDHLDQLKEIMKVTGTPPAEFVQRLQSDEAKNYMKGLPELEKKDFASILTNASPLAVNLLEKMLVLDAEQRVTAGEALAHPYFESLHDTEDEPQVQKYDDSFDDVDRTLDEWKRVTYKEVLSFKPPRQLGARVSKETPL

PKC-beta1 = PKC-beta1 (Homo sapiens, UniProt P05771); test: ProQinase radiometric kinase panel; conditions: mean of 2 exp.
PKC-beta2 = PKC-beta2 (Homo sapiens, UniProt P05771); test: ProQinase radiometric kinase panel; conditions: mean of 2 exp.
PKC-zeta = PKC-zeta (Homo sapiens, UniProt Q05513); test: ProQinase radiometric kinase panel; conditions: mean of 2 exp.
PRK1 = PRK1 (Homo sapiens, UniProt Q16512); test: ProQinase radiometric kinase panel; conditions: mean of 2 exp.
RIPK2 = RIPK2 (Homo sapiens, UniProt O43353); test: ProQinase radiometric kinase panel; conditions: mean of 2 exp.
S6K = S6K (Homo sapiens, UniProt P23443); test: ProQinase radiometric kinase panel; conditions: mean of 2 exp.
TEC = TEC (Homo sapiens, UniProt P42680); test: ProQinase radiometric kinase panel; conditions: mean of 2 exp.
TGFB-R2 = TGFB-R2 (Homo sapiens, UniProt P37173); test: ProQinase radiometric kinase panel; conditions: mean of 2 exp.
WNK2 = WNK2 (Homo sapiens, UniProt Q9Y3S1); test: ProQinase radiometric kinase panel; conditions: mean of 2 exp.
ZAK = ZAK (Homo sapiens, UniProt Q9NYL2); test: ProQinase radiometric kinase panel; conditions: mean of 2 exp.

Q: `COc1ccc2c3ccnc(Cl)c3n(CC#N)c2c1` [AnnH75] was tested. Which “Residual activity (% of control) HIPK2” value (HIPK2 [1]) did it give?
A: The value was 85 % of control.

Q: And the “residual activity at 1 µM, Mean” value (ACK1)?
A: Its value is 97 % of control.

Q: And the “residual activity at 1 µM, Mean” value (AKT3)?
A: The value was 104 % of control.

Q: And the “residual activity at 1 µM, Mean” value (CDK1/CycA2)?
A: Its value is 79 % of control.

Q: What about the “residual activity at 1 µM, Mean” value (CDK8/CycC) of the same molecule?
A: The value was 18 % of control.

Q: And the “residual activity at 1 µM, Mean” value (CK1-gamma2)?
A: Its value is 82 % of control.

Q: What about the “residual activity at 1 µM, Mean” value (DCAMKL2) of the same molecule?
A: The value was 97 % of control.

Q: And the “residual activity at 1 µM, Mean” value (EPHA7)?
A: The value was 107 % of control.

Q: What about the “residual activity at 1 µM, Mean” value (ERBB4) of the same molecule?
A: The value was 90 % of control.

Q: What about the “residual activity at 1 µM, Mean” value (ERK7) of the same molecule?
A: The value was 59 % of control.

Q: And the “residual activity at 1 µM, Mean” value (FGR)?
A: Its value is 101 % of control.

Q: What about the “residual activity at 1 µM, Mean” value (GRK3) of the same molecule?
A: Its value is 92 % of control.

Q: What about the “residual activity at 1 µM, Mean” value (GRK5) of the same molecule?
A: The value was 95 % of control.

Q: What about the “residual activity at 1 µM, Mean” value (GRK6) of the same molecule?
A: Its value is 98 % of control.

Q: And the “residual activity at 1 µM, Mean” value (HCK)?
A: Its value is 101 % of control.

Q: What about the “residual activity at 1 µM, Mean” value (HIPK2 [2]) of the same molecule?
A: The value was 87 % of control.

Q: And the “residual activity at 1 µM, Mean” value (INSR-R)?
A: Its value is 97 % of control.

Q: What about the “residual activity at 1 µM, Mean” value (JNK3) of the same molecule?
A: The value was 82 % of control.

Q: What about the “residual activity at 1 µM, Mean” value (MST3) of the same molecule?
A: Its value is 104 % of control.

Q: And the “residual activity at 1 µM, Mean” value (MST4)?
A: Its value is 92 % of control.

Q: What about the “residual activity at 1 µM, Mean” value (NIK) of the same molecule?
A: The value was 87 % of control.

Q: What about the “residual activity at 1 µM, Mean” value (p38-gamma) of the same molecule?
A: Its value is 86 % of control.

Q: What about the “residual activity at 1 µM, Mean” value (PKC-beta1) of the same molecule?
A: Its value is 93 % of control.

Q: And the “residual activity at 1 µM, Mean” value (PKC-beta2)?
A: The value was 108 % of control.

Q: And the “residual activity at 1 µM, Mean” value (PKC-zeta)?
A: The value was 97 % of control.

Q: And the “residual activity at 1 µM, Mean” value (PRK1)?
A: Its value is 94 % of control.

Q: And the “residual activity at 1 µM, Mean” value (RIPK2)?
A: Its value is 94 % of control.

Q: And the “residual activity at 1 µM, Mean” value (S6K)?
A: Its value is 85 % of control.

Q: What about the “residual activity at 1 µM, Mean” value (TEC) of the same molecule?
A: The value was 93 % of control.

Q: And the “residual activity at 1 µM, Mean” value (TGFB-R2)?
A: Its value is 83 % of control.

Q: What about the “residual activity at 1 µM, Mean” value (WNK2) of the same molecule?
A: The value was 98 % of control.

Q: And the “residual activity at 1 µM, Mean” value (ZAK)?
A: Its value is 94 % of control.
